Results taken from article PMC10580953, “In vitro and intracellular activities of novel thiopeptide derivatives against macrolide-susceptible and macrolide-resistant Mycobacterium avium complex” (Microbiology Spectrum, 2023).
Values after ≈ are worked out from the molar mass of the structure shown. “Also recorded” adds a separate entry of the source.

Assays:
M. intracellulare = assay: MIC by resazurin microtiter assay (REMA), M. intracellulare strains
Protocol: (§4) Reference strains were purchased from the American Type Culture Collection (ATCC; Manassas, VA, USA). […] All strains were cultivated in Middlebrook 7H9 liquid broth (Difco Laboratories, Detroit, MI) supplemented with 10% oleic acid-albumin-dextrose-catalase (OADC) or plated on Middlebrook 7H10 agar (Difco Laboratories) with 10% OADC enrichment at 37°C.
(§5) The MICs of all the reagents were determined using the REMA method based on guidelines by the Clinical and Laboratory Standards Institute ([57]). […] The cultures were diluted to an OD600 = 0.001 in 7H9 broth with 5% OADC. […] Two controls (broth only and bacteria only) were incubated to check for other contamination (broth only) and the growth of tested bacteria (bacteria only).

[1] = test system: macrolide-resistant M. avium clinical isolates in BMDMs; assay: Intracellular activity in BMDMs, macrolide-resistant M. avium clinical isolates; format: cell-based, Mycobacterium avium; conditions: five macrolide-resistant M. avium clinical isolates, 10 µg/mL, 72 h (Fig. 5)
Protocol: (§1) BMDMs were obtained from 6-week-old female BALB/c mice. Bone marrow cells were differentiated into BMDMs using Dulbecco’s Modified Eagle Medium (Biowest) supplemented with 10% fetal bovine serum (Biowest) and 10% L929 cell supernatant as previously described ([58]).
(§2) BMDMs were seeded at 4 × 10^5 cells/mL in a 48-well plate and incubated overnight at 37°C. MAC strains were infected at a multiplicity of infection of 3 for 4 h and washed with DPBS twice. The cells were then cultured in the absence or presence of drugs in triplicate wells for 72 h. After incubation, the cells were lysed with 0.05% Triton X-100, and the cell lysates serially diluted with DPBS were spotted on 7H10 agar plates supplemented with OADC to count the number of viable bacteria. Colonies were enumerated after 7 d of incubation at 37°C, and the values are reported as the mean CFU ± standard deviation (SD) per mL. All experiments were repeated at least three times independently.

[2] = test system: macrolide-resistant M. intracellulare; assay: MIC by REMA, macrolide-resistant M. intracellulare strains; conditions: Mycobacterium intracellulare
From the text: (§6) Reference strains were purchased from the American Type Culture Collection (ATCC; Manassas, VA, USA). All clinical MAC isolates, including macrolide-susceptible and macrolide-resistant strains, were kindly provided by Samsung Medical Center (SMC; Seoul, South Korea) and Asan Medical Center (AMC; Seoul, South Korea). All strains were cultivated in Middlebrook 7H9 liquid broth (Difco Laboratories, Detroit, MI) supplemented with 10% oleic acid-albumin-dextrose-catalase (OADC) or plated on Middlebrook 7H10 agar (Difco Laboratories) with 10% OADC enrichment at 37°C.
as §5
(§7) PCR amplification and sequencing for CLR were based on 23S rRNA. The primers and PCR conditions were as reported previously ([59]). PCR was carried out in a final volume of 20 µL and contained EzPCR Basic 5 × premix (ELPIS, Daejeon, South Korea), 13 µL of sterile dH2O, 1 µL of each forward and reverse primer, and 1 µL of template DNA. The PCR products were run on 1% agarose gels and purified using a NEXprep Gel/PCR Purification Mini Kit (Geneslabs, Gyeonggi, South Korea) for DNA cleanup. Purified PCR products were sequenced by Sanger sequencing in Bionics (Seoul, South Korea) with their gene-specific forward and reverse primers. Sequences obtained from Bionics were subjected to BLAST searches to compare nucleotide sequences with reference strains.

[3] = Aqueous kinetic solubility; format: physicochemical; conditions: for solubility at 2 h: aqueous buffer, kinetic from dmso stock, free form, deionized water pH 7.4, 1% DMSO
Protocol: The aqueous kinetic solubility was determined by preparing a 20 mM DMSO stock solution of test compounds and incubating an aliquot of this solution in deionized water at pH 7.4 to set a 1% final concentration of DMSO. In the case of HCl salt compounds, 1–2 mg of compound was weighed and dissolved in deionized water to yield an approximately 10 mg/mL solution. After initial mixing using brief vortexing and sonication, samples were equilibrated by shaking for 2 h at room temperature. Suspensions or solutions with visible particles were filtered through 0.22 µm PVDF membrane filters. The dissolved drug concentration was analyzed using UPLC-MS. To determine the solubility of the HCl salt, 1 mg of compound was weighed into a 2 mL glass tube, and a fixed volume of deionized water was added to yield an approximately 10 mg/mL solution. The solution was equilibrated by shaking for 24 h at room temperature. After equilibration, the vials were visually examined. If a clear solution was obtained, solubility was reported as >mg/mL.

MAC in murine BMDMs [4] = assay: Intracellular anti-MAC activity in infected BMDMs, summary statements for MAC; format: cell-based, Mycobacterium avium complex; conditions: for intracellular growth of MAC in BMDMs: MAC-infected BMDMs, 72 h (Fig. 2)
Protocol: as §1, §2

[5] = test system: M. intracellulare ATCC 13950; conditions: synergism FICI ≤0.5, additive 0.5 < FICI ≤ 1, indifferent 1 < FICI ≤ 4, antagonistic FICI >4
Protocol: (§3) To evaluate the efficacy of the combination of agent A and agent B, a fractional inhibitory concentration (FIC) index was calculated as follows: FICI = (FIC of agent A) + (FIC of agent B) = (MIC of agent A in combination/MIC of agent A alone) + (MIC of agent B in combination/MIC of agent B alone). Synergism is defined as FICI ≤0.5, additive as 0.5 < FICI ≤ 1, indifferent as 1 < FICI ≤ 4, and antagonistic as FICI >4. The cultured bacteria were diluted to a 0.005 OD600 in 7H9 broth containing 5% OADC, and the antimicrobial agents were prepared by serial dilutions to a final concentration of 0.03–4 μg/mL. For the evaluation of inhibitory concentrations, the plates were incubated at 37°C for 5–7 d. Then, MIC values were assessed by REMA, and the FICI was calculated.

M. avium ATCC 700898 = conditions: synergism FICI ≤0.5, additive 0.5 < FICI ≤ 1, indifferent 1 < FICI ≤ 4, antagonistic FICI >4
Protocol: as §3

BMDMs = assay: Cell cytotoxicity test (trypan blue cell counting); format: cell-based, BALB/c mice; conditions: 20 µg/mL, overnight incubation (Fig. S4)
Protocol: as §1
Cell viability was evaluated using trypan blue cell counting. BMDMs were plated at 4 × 10^5 cells/mL along with antibiotics in a 48-well cell culture plate. The antibiotics were serially diluted twofold from the highest concentration of 20 μg/mL to 1.25 μg/mL. After overnight incubation at 37°C with 5% CO2, BMDMs were isolated, and viable cells were counted using trypan blue dye exclusion. Cell viability was calculated as a percentage compared to the control. All experiments were repeated at least three times independently.

[6] = test system: macrolide-resistant M. avium; assay: MIC by REMA, macrolide-resistant M. avium strains
From the text: as §6, §5, §7

M. avium = assay: MIC by resazurin microtiter assay (REMA), M. avium strains
Protocol: as §4, §5

[7] = test system: M. intracellulare in murine BMDMs; assay: Intracellular anti-MAC activity in infected BMDMs, M. intracellulare; format: cell-based, Mycobacterium intracellulare; conditions: M. intracellulare ATCC 13950, 10 µg/mL, 72 hr
Protocol: as §1, §2

MAC strains = assay: MIC by REMA, summary statements for MAC strains; format: cell-based, Mycobacterium avium complex; conditions: Mycobacterium avium; range over tested MAC strains (Table 2); read-out: in vitro MIC for the tested MAC strains
M. avium in murine BMDMs = assay: Intracellular anti-MAC activity in infected BMDMs, M. avium; format: cell-based, Mycobacterium avium; conditions: M. avium ATCC 700898, 10 µg/mL, 72 hr
Protocol: as §1, §2

MAC in murine BMDMs [8] = test system: MAC in murine BMDMs; design: method as in PMID 33519787; conditions: cited from earlier work
[9] = Mycobacterium intracellulare, ATCC13950, M. intracellulare (ATCC 13950), reference strain
[10] = Mycobacterium intracellulare, M. intracellulare (SMC#8)
[11] = Mycobacterium intracellulare, M. intracellulare (SMC#12)
[12] = Mycobacterium intracellulare, M. intracellulare (SMC#699)
[13] = Mycobacterium avium, ATCC700898

Compound `C/C=C1\NC(=O)[C@H]([C@@H](C)O)NC(=O)c2csc(n2)-c2ccc(-c3nc(-c4nc(C(=O)NC5(C(=O)NCCCN6CCOCC6)CC5)cs4)cs3)nc2-c2csc(n2)[C@H]([C@@H](C)O)NC(=O)c2csc(n2)[C@H](C(C)C)NC(=O)c2csc1n2` [AJ-037] has an MIC (M. intracellulare; M. intracellulare (SMC#9)) of 0.125 µg/mL (≈ 0.103 µM), an MIC (M. intracellulare; M. intracellulare (SMC#831)) of 0.125 µg/mL (≈ 0.103 µM) and an MIC (M. intracellulare; M. intracellulare (SMC#2087)) of 0.125 µg/mL (≈ 0.103 µM). The MIC (M. intracellulare; Mycobacterium intracellulare) was 0.125 µg/mL (≈ 0.103 µM), the MIC (M. intracellulare; [9]) was 0.25 µg/mL (≈ 0.206 µM) and the MIC (M. intracellulare; [10]) was 0.25 µg/mL (≈ 0.206 µM). The MIC (M. intracellulare; [11]) was 0.25 µg/mL (≈ 0.206 µM), the MIC (M. intracellulare; [12]) was 0.25 µg/mL (≈ 0.206 µM) and the “intracellular bacterial growth in BMDMs” value [1] was “notably inhibited intracellular bacterial growth”. It also gave an MIC ([2]; M. intracellulare (AMC#24), 23S rRNA A2058/A2059 G/A) of 0.125 µg/mL (≈ 0.103 µM), an MIC ([2]; M. intracellulare (SMC#104), 23S rRNA A2058/A2059 G/A) of 0.125 µg/mL (≈ 0.103 µM) and an MIC ([2]; M. intracellulare (SMC#414), 23S rRNA A2058/A2059 A/G) of 0.125 µg/mL (≈ 0.103 µM). For the same compound, the solubility at 2 h [3] was 103 µg/mL (≈ 84.9 µM), the “Fold increase, HCl salt” value ([3]; solubility of HCl salt compared to MP2) was “×71,428 fold” and the “Fold increase, Free form” value ([3]; solubility of free form compared to MP2) was “×1,471 fold”. For the same compound, the solubility ([3]; thermodynamic from solid, HCl salt in deionized water) was 5000 µg/mL, the “intracellular growth of MAC in BMDMs” value (MAC in murine BMDMs [4]) was “remarkably inhibited the intracellular growth of MAC to a similar degree as CLR; also recorded: significantly reduced the number of MAC CFUs inside macrophages” and the “intracellular activity in BMDMs infected with macrolide-resistant MAC clinical isolates” value (MAC in murine BMDMs [4]; macrolide-resistant MAC, 10 µg/mL, 72 h (Fig. 5 and 6)) was “significant decrease in CFUs”. The “drug-drug interaction with CLR” value [5] was “relatively weak but synergistic effect; also recorded: Synergistic effects”, the “drug-drug interaction with CLR” value (M. avium ATCC 700898) was “strongest synergistic effect; also recorded: Synergistic effects” and the Cell viability (BMDMs) was “decreased”. The MIC ([6]; M. avium (SMC#1216), 23S rRNA A2058/A2059 C/A) was 0.125 µg/mL (≈ 0.103 µM), the MIC ([6]; Mycobacterium avium) was 0.125 µg/mL (≈ 0.103 µM) and the MIC ([6]; Mycobacterium avium, M. avium (SMC#420), 23S rRNA A2058/A2059 C/A) was 0.5 µg/mL (≈ 0.412 µM). For the same compound, the MIC ([6]; Mycobacterium avium, M. avium (SMC#422), 23S rRNA A2058/A2059 A/G) was 1 µg/mL (≈ 0.824 µM), the MIC ([6]; Mycobacterium avium, M. avium (SMC#1213), 23S rRNA A2058/A2059 T/A) was 0.5 µg/mL (≈ 0.412 µM) and the MIC (M. avium; M. avium (SMC#7)) was 0.25 µg/mL (≈ 0.206 µM). The MIC (M. avium; Mycobacterium avium) was 0.25 µg/mL (≈ 0.206 µM), the MIC (M. avium; [13]) was 0.25 µg/mL (≈ 0.206 µM) and the MIC (M. avium; Mycobacterium avium, M. avium (SMC#6)) was 0.125 µg/mL (≈ 0.103 µM). The MIC (M. avium; Mycobacterium avium, M. avium (SMC#1637)) was 0.125 µg/mL (≈ 0.103 µM).

`C/C=C(\NC(=O)c1csc(-c2csc(-c3ccc4c(n3)-c3csc(n3)[C@H]([C@@H](C)O)NC(=O)c3csc(n3)[C@H](C(C)C)NC(=O)c3csc(n3)/C(=C/C)NC(=O)[C@H]([C@@H](C)O)NC(=O)c3csc-4n3)n2)n1)C(=O)NCC(C)=O` [MP2, micrococcin P2, reference compound] gave an MIC (M. intracellulare; [9]) of 0.125 µg/mL (≈ 0.109 µM), an MIC (M. intracellulare; Mycobacterium intracellulare, M. intracellulare (SMC#7)) of 0.125 µg/mL (≈ 0.109 µM) and an MIC (M. intracellulare; [10]) of 0.125 µg/mL (≈ 0.109 µM). It also gave an MIC (M. intracellulare; Mycobacterium intracellulare, M. intracellulare (SMC#9)) of 0.125 µg/mL (≈ 0.109 µM), an MIC (M. intracellulare; [11]) of 0.125 µg/mL (≈ 0.109 µM) and an MIC (M. intracellulare; [12]) of 0.125 µg/mL (≈ 0.109 µM). The MIC (M. intracellulare; Mycobacterium intracellulare, M. intracellulare (SMC#831)) was 0.125 µg/mL (≈ 0.109 µM), the MIC (M. intracellulare; Mycobacterium intracellulare, M. intracellulare (SMC#2087)) was 0.125 µg/mL (≈ 0.109 µM) and the “intracellular activity (CFU) in BMDMs” value [7] was “ineffective”. For the same compound, the solubility at 2 h [3] was 0.07 µg/mL (≈ 0.0613 µM), the MIC (MAC strains) was 0.125 to 0.5 µg/mL (≈ 0.109 to 0.438 µM) and the “intracellular growth of MAC in BMDMs” value (MAC in murine BMDMs [4]) was “completely abrogated”. For the same compound, the Cell viability (BMDMs) was “decreased”, the MIC (M. avium; M. avium (SMC#6)) was 0.125 µg/mL (≈ 0.109 µM) and the MIC (M. avium; M. avium (SMC#7)) was 0.125 µg/mL (≈ 0.109 µM). For the same compound, the MIC (M. avium; M. avium (SMC#1637)) was 0.125 µg/mL (≈ 0.109 µM), the MIC (M. avium; Mycobacterium avium) was 0.125 µg/mL (≈ 0.109 µM) and the MIC (M. avium; [13]) was 0.125 µg/mL (≈ 0.109 µM). For the same compound, the “intracellular activity (CFU) in BMDMs” value (M. avium in murine BMDMs) was “ineffective”.

For `CO[C@H]1/C=C/O[C@@]2(C)Oc3c(C)c(O)c4c(O)c(c(/C=N/N5CCN(C)CC5)c(O)c4c3C2=O)NC(=O)/C(C)=C\C=C\[C@H](C)[C@H](O)[C@@H](C)[C@@H](O)[C@@H](C)[C@H](OC(C)=O)[C@@H]1C` [rifampicin], the “intracellular activity against MAC” value (MAC in murine BMDMs [8]) is given as “little intracellular activity”.
